Tests used:
[1] = test system: pERK; test: Skin punch biopsy pERK immunohistochemistry; type: in vivo, human; details: cycle 1 day 15
Method: (§1) Skin punch biopsies (with hair follicles, if feasible) were obtained from patients in the dose-escalation phase and colorectal cancer expansion phase cohorts pre-dose at baseline and post dose within 7 days of cycle 1 day 15 for measurement of Ki67 and pERK expression. Ki67 and pERK expression were determined by immunohistochemistry using a Ki67 rabbit monoclonal antibody (clone 30-9; Ventana Medical Systems, Inc., Tucson, AZ, USA) and a pERK rabbit monoclonal antibody (Thr202/Tyr204, clone 20G11; Cell Signaling Technology, Inc., Danvers, MA), respectively, visualised with DAB and counterstained with haematoxylin. Ki67 was expressed as percentage of tumour cells with positive stain; pERK was expressed as an H-score.

[2] = test system: ERK phosphorylation; set-up: method as in Lee et al, 2010; details: human cell lines; ref Lee et al, 2010; cited from earlier work
[3] = Phase 1 dose escalation: DLTs and MTD; type: in vivo
Method: This multicentre, open-label, phase 1 study comprised two phases: a dose-escalation phase and an expansion phase. In the dose-escalation phase, a modified 3+3 design was employed to determine the MTD of binimetinib administered orally twice daily (BID) in a 21-day treatment cycles. A single dose of binimetinib was administered on day 1 and then BID continuously beginning on day 2 of cycle 1. A starting dose of 30 mg BID was utilised for the dose-escalation phase. The dose was escalated in cohorts of at least three evaluable patients at 45 mg BID, 60 mg BID, and 80 mg BID until MTD was determined. Patients in the expansion phase received continuous BID treatment with binimetinib beginning on day 1 of cycle 1 at the MTD determined in the dose-escalation phase. Patients were instructed to take BID doses 12±2 h apart with water, irrespective of food.
Dose-limiting toxicities (DLTs) were any adverse event (AE) not clearly attributable to the patient's disease, including haematologic toxicities of grade 4 neutropenia for ⩾5 days, febrile neutropenia, grade 4 thrombocytopenia, and grade 3 thrombocytopenia with bleeding. […]

[4] = test system: Ki67; test: Skin punch biopsy Ki67 immunohistochemistry; type: in vivo, human; details: cycle 1 day 15
Method: as §1

[5] = test system: NRAS-mutant melanoma; set-up: method as in Ascierto et al, 2013; Van Herpen et al, 2015; details: patients with advanced NRAS-mutant melanoma; ref Ascierto et al, 2013; Van Herpen et al, 2015; cited from earlier work
[6] = test system: C-reactive protein, interferon, IL-10, IL-12p70, IL-1β, IL-6, or IL-8; test: Serum cytokines other than TNF-α; type: in vivo, human
[7] = test system: biliary cancer, KRAS- or BRAF-mutant colorectal cancer; test: Kaplan–Meier PFS and OS, expansion phase cohorts; type: in vivo, human
Method: All patients who received ⩾1 dose of binimetinib were included in the safety analysis. Patients in the safety analysis who had ⩾1 measurable lesion at baseline and at least 1 post-baseline disease assessment were evaluable for efficacy. Kaplan–Meier estimates of progression-free survival (PFS) and overall survival (OS) were performed for patients in the expansion phase ([Kaplan and Meier, 1958]) using SAS Version 9.2 (SAS Institute Inc., Cary, NC, USA).

[8] = set-up: method as in Watanabe et al, 2016; details: BID; Japanese patients with advanced solid tumours; ref Watanabe et al, 2016; cited from earlier work
[9] = test system: pMEK; test: Skin punch biopsy pMEK expression; type: in vivo, human; details: pre-dose and post-dose skin punch biopsies
[10] = BRAF-mutant colorectal cancer cohort (45 mg BID)
[11] = KRAS-mutant colorectal cancer 45 mg dose cohort
[12] = KRAS-mutant colorectal cancer 60 mg dose cohort

Cn1cnc2c(F)c(Nc3ccc(Br)cc3F)c(C(=O)NOCCO)cc21 [binimetinib]
Skin expression of pERK, median (range) percent of baseline ([1]; 30 mg BID (n=4)): 88 (50–100) percent of baseline
Skin expression of pERK, median (range) percent of baseline ([1]; 45 mg BID (n=22)): 66 (38–189) percent of baseline
Skin expression of pERK, median (range) percent of baseline ([1]; 60 mg BID (n=7)): 59 (29–72) percent of baseline
Skin expression of pERK, median (range) percent of baseline ([1]; Total (N=33)): 64 (29–189) percent of baseline
Inhibition of ERK phosphorylation [2]: markedly inhibits
Recommended phase 2 dose ([3]; human, in vivo, 21 day): 45 mg
Maximum tolerated dose (MTD) ([3]; orally twice daily (BID), 21-day cycles, patients with advanced solid tumours): 60 mg
Skin expression of Ki67, median (range) percent of baseline ([4]; 30 mg BID (n=4)): 44 (25–56) percent of baseline
Skin expression of Ki67, median (range) percent of baseline ([4]; 45 mg BID (n=22)): 33 (6–300) percent of baseline
Skin expression of Ki67, median (range) percent of baseline ([4]; 60 mg BID (n=7)): 31 (17–100) percent of baseline
Skin expression of Ki67, median (range) percent of baseline ([4]; Total (N=33)): 33 (6–300) percent of baseline
Response rate [5]: 15%
Changes in C-reactive protein, interferon, IL-10, IL-12p70, IL-1β, IL-6, or IL-8 [6]: no notable changes
Median OS [7, 10]: 7.1 months
Median PFS [7, 10]: 1.4 months
Median OS [7, 11]: 4.7 months
Median PFS [7, 11]: 1.5 months
Median OS [7, 12]: 9.1 months
Median PFS [7, 12]: 3.5 months
Median OS ([7]; biliary cohort (60 mg BID)): 4.8 months
Median PFS ([7]; biliary cohort (60 mg BID)): 2.1 months
MTD/recommended phase 2 dose [8]: 45 mg
Change in skin pMEK relative to baseline [9]: no notable changes

Source: article PMC5344293, “A phase 1 dose-escalation and expansion study of binimetinib (MEK162), a potent and selective oral MEK1/2 inhibitor” (British Journal of Cancer, 2017)
